Here are results for 32 compounds from patent US8143263B2, “Therapeutic agents” (Astrazeneca AB, priority 2008, dated 2012).

Each structure is given as a SMILES string.

The target in the assay is T1, recombinant human pancreatic GLK (Homo sapiens, UniProt P35557).
T1 sequence (P35557 1-465): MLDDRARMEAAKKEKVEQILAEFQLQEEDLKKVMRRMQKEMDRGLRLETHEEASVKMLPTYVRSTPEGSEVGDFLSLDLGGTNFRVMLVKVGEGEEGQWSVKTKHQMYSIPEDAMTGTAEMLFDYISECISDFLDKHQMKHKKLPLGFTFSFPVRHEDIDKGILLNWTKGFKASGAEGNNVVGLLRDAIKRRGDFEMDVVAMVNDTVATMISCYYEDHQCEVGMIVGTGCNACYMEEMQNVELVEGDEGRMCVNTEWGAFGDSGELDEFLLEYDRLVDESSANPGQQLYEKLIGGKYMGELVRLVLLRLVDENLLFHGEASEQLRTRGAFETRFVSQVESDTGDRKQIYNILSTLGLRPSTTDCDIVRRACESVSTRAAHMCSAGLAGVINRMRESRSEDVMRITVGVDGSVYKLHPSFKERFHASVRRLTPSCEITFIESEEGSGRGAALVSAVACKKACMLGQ
Briefly: biochemical.
For orientation: EC50 means the concentration at which the effect is half-maximal. As for `Cc1ccc(NC(=O)C(CCS(C)(=O)=O)Oc2ncnc3c2cnn3C)nc1` (centres unmarked) [2-(1-methylpyrazolo[4,5-e]pyrimidin-4-yl)oxy-N-(5-methyl-2-pyridyl)-4-methylsulfonyl-butanamide], the half-maximal effective concentration (EC50) was more than 100 µM.
The value for `Cc1nnc(NC(=O)C(COC(C)C)Oc2ncnc3c2cnn3-c2ccccc2Cl)o1` (centres unmarked) [2-[1-(2-chlorophenyl)pyrazolo[4,5-e]pyrimidin-4-yl]oxy-3-isopropoxy-N-(5-methyl-1,3,4-oxadiazol-2-yl)propanamide] was more than 100 µM; that for `CC(C)OCC(Oc1ncnc2c1cnn2-c1ccccc1Cl)C(=O)Nc1ncccn1` (centres unmarked) [2-[1-(2-chlorophenyl)pyrazolo[4,5-e]pyrimidin-4-yl]oxy-3-isopropoxy-N-pyrimidin-2-yl-propanamide] was more than 100 µM.
For `CC(C)OCC(Oc1ncnc2c1cnn2-c1ccccc1Cl)C(=O)Nc1cc(C#N)ccn1` (centres unmarked) [2-[1-(2-chlorophenyl)pyrazolo[4,5-e]pyrimidin-4-yl]oxy-N-(4-cyano-2-pyridyl)-3-isopropoxy-propanamide], the concentration giving a half-maximal response (EC50) is more than 100 µM.
For `COCCOCCC(Sc1ncnc2c1cnn2-c1ccccc1Cl)C(=O)Nc1ccc(C)cn1` (centres unmarked) [2-[1-(2-chlorophenyl)pyrazolo[4,5-e]pyrimidin-4-yl]sulfanyl-4-(2-methoxyethoxy)-N-(5-methyl-2-pyridyl)butanamide], the EC50 was more than 100 µM.
Consider `CCCCCCC(Sc1ncnc2c1cnn2-c1ccccc1Cl)C(=O)Nc1ccc(C)cn1` (centres unmarked) [2-[1-(2-chlorophenyl)pyrazolo[4,5-e]pyrimidin-4-yl]sulfanyl-N-(5-methyl-2-pyridyl)octanamide], for which the EC50 is more than 100 µM.
As for `Cc1cccnc1NC(=O)[C@H](COC(C)C)Oc1ncnc2c1cnn2-c1ncccc1Cl` [(2S)-2-[1-(3-chloro-2-pyridyl)pyrazolo[4,5-e]pyrimidin-4-yl]oxy-3-isopropoxy-N-(3-methyl-2-pyridyl)propanamide], the EC50 was more than 100 µM.
The value for `COc1ccnc(NC(=O)[C@H](COC(C)C)Oc2ncnc3c2cnn3-c2ncccc2Cl)c1` [(2S)-2-[1-(3-chloro-2-pyridyl)pyrazolo[4,5-e]pyrimidin-4-yl]oxy-3-isopropoxy-N-(4-methoxy-2-pyridyl)propanamide] was more than 100 µM; that for `Cc1nc(NC(=O)[C@H](COC(C)C)Oc2ncnc3c2cnn3-c2ncccc2Cl)nn1C` [(2S)-2-[1-(3-chloro-2-pyridyl)pyrazolo[4,5-e]pyrimidin-4-yl]oxy-N-(1,5-dimethyl-1,2,4-triazol-3-yl)-3-isopropoxy-propanamide] was more than 100 µM; that for `COc1ccccc1-n1ncc2c(O[C@H](C)C(=O)Nc3ccc(C)cn3)ncnc21` [(R)-2-[1-(2-methoxyphenyl)pyrazolo[4,5-e]pyrimidin-4-yl]oxy-N-(5-methyl-2-pyridyl)propanamide] was more than 100 µM.
The value for `COCC[C@@H](Oc1ncnc2c1cnn2-c1ccccn1)C(=O)Nc1ccc(C)cn1` [(R)-4-methoxy-N-(5-methyl-2-pyridyl)-2-[1-(2-pyridyl)pyrazolo[4,5-e]pyrimidin-4-yl]oxy-butanamide] was more than 100 µM; that for `COCC(Oc1ncnc2c1cnn2-c1ccccc1Cl)C(=O)Nc1ccc(C)cn1` (centres unmarked) [Example 1, 2-{[1-(2-chlorophenyl)-1H-pyrazolo[3,4-d]pyrimidin-4-yl]oxy}-3-methoxy-N-(5-methylpyridin-2-yl)propanamide] was 0.62 µM.
The value for `COC[C@@H](Oc1ncnc2c1cnn2-c1ccccc1Cl)C(=O)Nc1ccc(C)cn1` [Example 2, (R)-2-{[1-(2-chlorophenyl)-1H-pyrazolo[3,4-d]pyrimidin-4-yl]oxy}-3-methoxy-N-(5-methylpyridin-2-yl)propanamide] was not below 100 µM; that for `COC[C@H](Oc1ncnc2c1cnn2-c1ccccc1Cl)C(=O)Nc1ccc(C)cn1` [Example 3, (S)-2-{[1-(2-chlorophenyl)-1H-pyrazolo[3,4-d]pyrimidin-4-yl]oxy}-3-methoxy-N-(5-methylpyridin-2-yl)propanamide] was 0.17 µM; that for `COCC(Oc1ncnc2c1cnn2-c1ccccc1OC)C(=O)Nc1ccc(C)cn1` (centres unmarked) [Example 4, 3-methoxy-2-{[1-(2-methoxyphenyl)-1H-pyrazolo[3,4-d]pyrimidin-4-yl]oxy}-N-(5-methylpyridin-2-yl)propanamide] was 3.4 µM.
As to `COC[C@@H](Oc1ncnc2c1cnn2-c1ccccc1OC)C(=O)Nc1ccc(C)cn1` [Example 5, (R)-3-methoxy-2-{[1-(2-methoxyphenyl)-1H-pyrazolo[3,4-d]pyrimidin-4-yl]oxy}-N-(5-methylpyridin-2-yl)propanamide], the EC50 is not below 100 µM.
The value for `COC[C@H](Oc1ncnc2c1cnn2-c1ccccc1OC)C(=O)Nc1ccc(C)cn1` [Example 6, (S)-3-methoxy-2-{[1-(2-methoxyphenyl)-1H-pyrazolo[3,4-d]pyrimidin-4-yl]oxy}-N-(5-methylpyridin-2-yl)propanamide] was 0.68 µM; that for `COCC(Oc1ncnc2c1cnn2-c1ccc(Cl)cc1Cl)C(=O)Nc1ccc(C)cn1` (centres unmarked) [Example 7, 2-{[1-(2,4-Dichlorophenyl)-1H-pyrazolo[3,4-d]pyrimidin-4-yl]oxy}-3-methoxy-N-(5-methylpyridin-2-yl)propanamide] was 3.7 µM; that for `COCC(Oc1ncnc2c1cnn2C)C(=O)Nc1ccc(C)cn1` (centres unmarked) [Example 8, 3-methoxy-2-[(1-methyl-1H-pyrazolo[3,4-d]pyrimidin-4-yl)oxy]-N-(5-methylpyridin-2-yl)propanamide] was not below 100 µM.
The value for `Cc1ccc(NC(=O)C(CCS(C)(=O)=O)Oc2ncnc3c2cnn3-c2ccccc2Cl)nc1` (centres unmarked) [Example 9, 2-{[1-(2-chlorophenyl)-1H-pyrazolo[3,4-d]pyrimidin-4-yl]oxy}-N-(5-methylpyridin-2-yl)-4-(methylsulfonyl)butanamide] was 0.52 µM.
Turning to `COc1ccccc1-n1ncc2c(OC(CCS(C)(=O)=O)C(=O)Nc3ccc(C)cn3)ncnc21` (centres unmarked) [Example 10, 2-{[1-(2-methoxyphenyl)-1H-pyrazolo[3,4-d]pyrimidin-4-yl]oxy}-N-(5-methylpyridin-2-yl)-4-(methylsulfonyl)butanamide], the EC50 came to 2.7 µM.
The value for `COc1ccccc1-n1ncc2c(O[C@H](CCS(C)(=O)=O)C(=O)Nc3ccc(C)cn3)ncnc21` [Example 11, (R)-2-{[1-(2-methoxyphenyl)-1H-pyrazolo[3,4-d]pyrimidin-4-yl]oxy}-N-(5-methylpyridin-2-yl)-4-(methylsulfonyl)butanamide] was not below 100 µM; that for `COc1ccccc1-n1ncc2c(O[C@@H](CCS(C)(=O)=O)C(=O)Nc3ccc(C)cn3)ncnc21` [Example 12, (S)-2-{[1-(2-methoxyphenyl)-1H-pyrazolo[3,4-d]pyrimidin-4-yl]oxy}-N-(5-methylpyridin-2-yl)-4-(methylsulfonyl)butanamide] was 2.4 µM; that for `COCCC(Oc1ncnc2c1cnn2-c1cccc(OC)c1)C(=O)Nc1ccc(C)cn1` (centres unmarked) [Example 13, 4-methoxy-2-{[1-(3-methoxyphenyl)-1H-pyrazolo[3,4-d]pyrimidin-4-yl]oxy}-N-(5-methylpyridin-2-yl)butanamide] was 1.4 µM.
The value for `COCC[C@@H](Oc1ncnc2c1cnn2-c1cccc(OC)c1)C(=O)Nc1ccc(C)cn1` [Example 14, (R)-4-methoxy-2-{[1-(3-methoxyphenyl)-1H-pyrazolo[3,4-d]pyrimidin-4-yl]oxy}-N-(5-methylpyridin-2-yl)butanamide] was not below 100 µM; that for `COCC[C@H](Oc1ncnc2c1cnn2-c1cccc(OC)c1)C(=O)Nc1ccc(C)cn1` [Example 15, (S)-4-methoxy-2-{[1-(3-methoxyphenyl)-1H-pyrazolo[3,4-d]pyrimidin-4-yl]oxy}-N-(5-methylpyridin-2-yl)butanamide] was 2.7 µM; that for `COCCC(Oc1ncnc2c1cnn2-c1ccccc1C)C(=O)Nc1ccc(C)cn1` (centres unmarked) [Example 16, 4-methoxy-2-{[1-(2-methylphenyl)-1H-pyrazolo[3,4-d]pyrimidin-4-yl]oxy}-N-(5-methylpyridin-2-yl)butanamide] was 0.29 µM.
The value for `COCC[C@H](Oc1ncnc2c1cnn2-c1ccccc1C)C(=O)Nc1ccc(C)cn1` [Example 17, (S)-4-methoxy-2-{[1-(2-methylphenyl)-1H-pyrazolo[3,4-d]pyrimidin-4-yl]oxy}-N-(5-methylpyridin-2-yl)butanamide] was 0.064 µM; that for `COCC[C@@H](Oc1ncnc2c1cnn2-c1ccccc1C)C(=O)Nc1ccc(C)cn1` [Example 18, (R)-4-methoxy-2-{[1-(2-methylphenyl)-1H-pyrazolo[3,4-d]pyrimidin-4-yl]oxy}-N-(5-methylpyridin-2-yl)butanamide] was 32 µM.
On to `COCCC(Oc1ncnc2c1cnn2-c1ccccc1Cl)C(=O)Nc1ccc(C)cn1` (centres unmarked) [Example 19, 2-{[1-(2-Chlorophenyl)-1H-pyrazolo[3,4-d]pyrimidin-4-yl]oxy}-4-methoxy-N-(5-methylpyridin-2-yl)butanamide], for which the 50% effective concentration (EC50) stood at 0.095 µM.
In the case of `COCC[C@@H](Oc1ncnc2c1cnn2-c1ccccc1Cl)C(=O)Nc1ccc(C)cn1` [Example 20, (R)-2-{[1-(2-Chlorophenyl)-1H-pyrazolo[3,4-d]pyrimidin-4-yl]oxy}-4-methoxy-N-(5-methylpyridin-2-yl)butanamide], the concentration giving a half-maximal response (EC50) is 9.3 µM.
The value for `COCC[C@H](Oc1ncnc2c1cnn2-c1ccccc1Cl)C(=O)Nc1ccc(C)cn1` [Example 21, (S)-2-{[1-(2-chlorophenyl)-1H-pyrazolo[3,4-d]pyrimidin-4-yl]oxy}-4-methoxy-N-(5-methylpyridin-2-yl)butanamide] was 0.032 µM.
